Test results: PubChem BioAssay (NCI)
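Dose response: 5 concentrations. Exposure: 48 h. Format: 96-well plates. Endpoint: linear interpolation; highest concentration if not reached. TGI is the concentration that stops growth completely.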

How the values were obtained:
Test in all cases: NCI-60 cell line screen, 48 h
[1] = system: IGROV1 ovarian
[2] = system: NCI/ADR-RES ovarian
[3] = system: MDA-MB-435
[4] = system: MDA-N
[5] = system: UACC-257 melanoma
[6] = system: NCI-H226 lung
[7] = system: OVCAR-5 ovarian
[8] = system: HOP-92 NSCLC
[9] = system: K-562 leukemia
[10] = system: KM12 colon
[11] = system: UACC-62 melanoma
[12] = system: PC-3 prostate
[13] = system: MALME-3M melanoma
[14] = system: SW-620 colon
[15] = system: LOX IMVI melanoma
[16] = system: RPMI-8226 leukemia
[17] = system: HT29 colon
[18] = system: SK-MEL-2 melanoma
[19] = system: M14 melanoma
[20] = system: MCF7 breast
[21] = system: SK-OV-3 ovarian
[22] = system: CAKI-1 renal
[23] = system: HCT-15 colon
[24] = system: SF-295 CNS
[25] = system: SF-268 CNS
[26] = system: OVCAR-8 ovarian
[27] = system: U251 CNS
[28] = system: SNB-19 CNS
[29] = system: 786-0 renal
[30] = system: DU-145 prostate
[31] = system: BT-549 breast
[32] = system: NCI-H522 lung
[33] = system: HOP-62 NSCLC
[34] = system: RXF 393 renal
[35] = system: SK-MEL-5 melanoma
[36] = system: OVCAR-3 ovarian
[37] = system: ACHN renal
[38] = system: HL-60(TB) leukemia
[39] = system: SK-MEL-28 melanoma
[40] = system: HCT-116 colon
[41] = system: T-47D breast
[42] = system: EKVX NSCLC
[43] = system: SR leukemia
[44] = system: SN12C renal
[45] = system: A549 NSCLC
[46] = system: MOLT-4 leukemia
[47] = system: HS 578T breast
[48] = system: NCI-H23 lung
[49] = system: COLO 205 colon
[50] = system: A498 renal
[51] = system: OVCAR-4 ovarian
[52] = system: UO-31 renal
[53] = system: NCI-H460 lung
[54] = system: TK-10 renal
[55] = system: HCC-2998 colon
[56] = system: SF-539 CNS
[57] = system: MDA-MB-231 breast
[58] = system: CCRF-CEM leukemia

Measured: TGI

COP(=O)(OC)C(O)/C=C/c1ccco1 (configuration not stated)
not listed: [53] | [54] | [55] | [56] | [57] | [58]
> 100 µM: all other assays above

Cc1nc(N)c(N2CCN(Cc3ccccc3)CC2)c(=O)[nH]1
not listed: [1] | [8] | [11] | [21] | [22] | [34] | [35] | [51]
> 100 µM: all other assays above
